Reference: US20230167058A1, “GPX4 COMPOUNDS AND COMPOSITIONS AND METHODS OF TREATMENT USING SAME” (THE TRUSTEES OF COLUMBIA UNIVERSITY IN THE CITY OF NEW YORK, priority 2020, published 2023)
“Also recorded” adds a separate entry of the source.

Legend:
[1] = target: T1, GPX4^U46C (Homo sapiens, UniProt P36969, U73C); assay: 1H,15N-HSQC-NMR of 15N-labeled GPX4^U46C; format: binding
T1 construct: His6 (N, cleaved yes); made in house; host or cells: E. coli BL21-Gold (DE3), M9 minimal medium with 15NH4Cl
T1 sequence (P36969 33-197 U73C): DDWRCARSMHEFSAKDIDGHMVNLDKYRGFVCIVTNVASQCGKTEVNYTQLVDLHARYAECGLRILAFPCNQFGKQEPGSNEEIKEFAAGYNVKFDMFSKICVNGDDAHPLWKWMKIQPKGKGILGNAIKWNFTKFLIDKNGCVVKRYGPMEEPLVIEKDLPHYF
Protocol: Uniformly ^15N-labeled GPX4^U46C protein with N-terminal His6 tag was prepared. The GPX4^U46C construct was expressed in E. coli BL21-Gold (DE3) cells (Stratagene) growing at 37° C. in M9 minimal medium supplemented with […] ampicillin, 2 mM MgSO4, […] CaCl2, 1× trace metals, 1×RPMI 1640 vitamin stock (Sigma-Aldrich, #R7256), […] biotin, […] thiamine hydrochloride, 4 g/L glucose, and 3 g/L ^15NH4Cl as the sole nitrogen source. The following induction, lysis, and protein purification was the same as for the non-isotope-labeled His-tagged GPX4^U46C described above, except the N-terminal His6 tag was removed by adding 5 U/mg thrombin before FPLC purification. The thrombin reaction was after a buffer exchange to remove imidazole, which otherwise would inhibit thrombin, and was allowed to proceed overnight at 4° C.
Then the protein solution was concentrated to 50 μM before testing. For HSQC of GPX4 with other inhibitors, 50 μM ^15N-labeled GPX4 was preincubated with 800 μM inhibitor to be tested for […] at room temperature in buffer (100 mM MES, 5 mM TCEP, pH 6.5). D20 (10%) was then added for the field frequency lock. The ^1H-^15N HSQC spectra were collected on Bruker Avance III 500 Ascend (500 MHz) spectrometers (Columbia University) at 298K. The ^1H carrier frequency was positioned at the water resonance. The ^15N carrier frequency was positioned at 115 ppm. The spectral width in the ^1H dimension was 7,500 Hz and the width in the ^15N dimension was 1,824.6 Hz. Suppression of water signal was accomplished using the WATERGATE sequence. Heteronuclear decoupling was accomplished using GARP decoupling scheme.

[2] = target: T1, GPX4^U46C; assay: Intact protein MALDI MS analysis, GPX4^U46C; format: binding; conditions: protein preincubated with excess inhibitor
Protocol: GPX4^U46C or GPX4^AllCys(−)-A46C protein was pre-incubated with DMSO control or the inhibitor to be tested prior to MALDI MS analysis: 50 μM GPX4 protein was incubated with 500 μM inhibitors in FPLC buffer (100 mM Tris pH 8.0, 300 mM NaCl, and 3 mM TCEP) with 5% DMSO at RT for 1 hour before transferring to 4° C. overnight.
1 μl of the ligand-free protein (pre-incubated with DMSO) or protein-inhibitor complex (pre-incubated with the inhibitor to be tested) was mixed with 9 μl of 10 mg/ml sinapinic acid in the matrix solution (70:30 water/acetonitrile, with 0.1% TFA). 1.0 μl of the final mix was deposited onto the target carrier and allowed to air dry. MALDI spectrum was recorded using Bruker ultrafleXtreme MALDI-TOF instrument. The range of m/z detection and suppression was adjusted to accommodate the molecular weight of target protein. 2000 Hz and 50% intensity was applied for the laser setting. For each sample, five cumulative spectra were collected and the sum was recorded for analysis. All MALDI spectra of protein-inhibitor complex were compared with ligand-free protein to determine the mass shift. Mass shifts were aligned with the mass of potential staying group of each inhibitor to conclude covalent binding.

[3] = target: T2, GPX4 (Homo sapiens, UniProt P36969, U73C); assay: Surface plasmon resonance (SPR); format: binding; conditions: Table 1
T2 sequence (P36969 33-197 U73C): T1 sequence (P36969 33-197 U73C)
Description: These x-ray structures enabled further optimization of current inhibitors and the design of novel inhibitors targeting various binding sites on GPX4. Therefore, we applied a strategy of computer-facilitated design, based on MD simulation (Desmond) and Glide docking (Schrödinger Suite), and experimental high-throughput screening of a lead-optimized compound library of 10,000 compounds (FIGS. 6A-6E). All candidates were first evaluated by thermal denaturation assay and microscale thermophoresis (MST) to validate binding to GPX4 (Table 1). Surface plasmon resonance (SPR) and isothermal titration calorimetry (ITC) were then applied to precisely measure their binding kinetics and affinities, while ^1H-^15N heteronuclear single-quantum coherence (HSQC) NMR spectroscopy informed us of binding sites. We optimized two GPX4-specific activity assays to examine enzymatic inhibitory effects of hit compounds—LC-MS-based substrate/product monitoring and an NADPH-coupled assay. […] Some L880 analogues were also synthesized and tested (Table 2).

[4] = tested on: allCys(−) A66C GPX4 in G401 cells; assay: Western blot GPX4 degradation study in G401; format: cell-based; conditions: 2 or 4 μM RSL3, 10 h, 10 μM Fer-1
Protocol: For the GPX4 degradation study, G-401 cells were seeded at 800,000 per well in a 60-mm plate and allowed to adhere overnight. Cells were then treated with 10 μM Fer-1 and 0 (vehicle), 2 or 4 μM RSL3 for 10 h. Cells were harvested with trypsin (Invitrogen, 25200-114), pelleted, and lysed with RIPA buffer.
For the quantification of GPX4 protein level for cellular viability and GPX4-specific activity assay, each cell line subject to the cellular viability and GPX4-specific activity was tested by Western Blot in technical duplicates. In particular, cells were harvested with trypsin (Invitrogen, 25200-114), pelleted, and lysed by LCW lysis buffer (0.5% TritonX-100, 0.5% sodium deoxycholate salt, 150 mM NaCl, 20 mM Tris-HCl pH 7.5, 10 mM EDTA, 30 mM Na-pyrophosphate, and cOmplete protease inhibitor cocktail). While part of the cell lysates was blotted for protein quantification, the other part of lysates was used for the GPX4-specific activity assay. For both experiments, cell lysates were blotted and imaged as previously described (Yang et al. 2014). Antibodies used were GPX4 (Abcam, ab125066, 1:250 dilution) and actin (Cell Signaling, D18C11, 1:3,000 dilution). Results were quantified using a LI-COR Odyssey CLx IR scanner, ImageJ, and GraphPad Prism 9.

Row | Binding site ([1]; Table 1) | HSQC assay ([1]; Table 1) | SPR [3] | SMILES | binding mode by HSQC NMR [1] | covalent binding to GPX4^U46C by intact protein MALDI MS [2] | RSL3-induced degradation of allCys(−) A66C GPX4 [4]
1 | Allosteric Site 1 | positive | positive | COc1cccc2[nH]c(C(=O)n3ccnc3)cc12 [LOC1886] | non-covalently binds to the RSL3-binding site; also recorded: strongly interacted with the cys66 binding site | covalently bound | 
2 |  |  |  | COC(=O)c1ccc([C@@H]2c3[nH]c4ccccc4c3C[C@@H](C(=O)OC)N2C(=O)CCl)cc1 [RSL3, (1S, 3R)-RSL3] | global conformational change induced by binding of RSL3 to cys66 | 1:1 covalent binding | does-dependent degradation of allCys(−) A66C GPX4
